How the values were obtained:
[1] = tested on: bromegrass, downy; assay: Test D preemergence; format: in vivo, Bromus tectorum; settings: Bromus tectorum, pre-emergence, scale 0-100, read-out: Plant response rating, Bromegrass, Downy
Summary of the method: (§1)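 Greenhouse herbicide screen. Sowing into silt loam for preemergence application; foliar application to 2–18 cm seedlings in potting mix for postemergence. 0–100 visual control rating after 7–21 d.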

[2] = tested on: field poppy; assay: Test D preemergence; format: in vivo, Papaver rhoeas; settings: Papaver rhoeas, pre-emergence, scale 0-100, read-out: Plant response rating, Field Poppy
Summary of the method: as §1

[3] = tested on: Italian ryegrass; assay: Test D preemergence; format: in vivo, Lolium multiflorum; settings: Lolium multiflorum, pre-emergence
Summary of the method: as §1

[4] = tested on: lambsquarters; assay: Test D preemergence; format: in vivo, Chenopodium album; settings: Chenopodium album, pre-emergence, scale 0-100, read-out: Plant response rating, Lambsquarters
Summary of the method: as §1

[5] = tested on: pigweed; assay: Test D preemergence; format: in vivo, Amaranthus retroflexus; settings: Amaranthus retroflexus, pre-emergence
Summary of the method: as §1

[6] = tested on: chamomile; assay: Test D preemergence; format: in vivo, Matricaria inodora; settings: Tripleurospermum inodorum, pre-emergence, scale 0-100, read-out: Plant response rating, Chamomile
Summary of the method: as §1

[7] = tested on: spring barley; assay: Test D preemergence; format: in vivo, Hordeum vulgare; settings: Hordeum vulgare, pre-emergence, scale 0-100, read-out: Plant response rating, Barley, Spring
Summary of the method: as §1

[8] = tested on: windgrass; assay: Test D preemergence; format: in vivo, Apera spica-venti; settings: Apera spica-venti, pre-emergence
Summary of the method: as §1

[9] = tested on: blackgrass; assay: Test D postemergence; format: in vivo, Alopecurus myosuroides; settings: Alopecurus myosuroides, post-emergence, Postemergence, scale 0 to 100 (0 no effect, 100 complete control), read-out: Plant response rating, Blackgrass
Summary of the method: as §1

[10] = tested on: wild oat; assay: Test D postemergence; format: in vivo, Avena fatua; settings: Avena fatua, post-emergence, scale 0 to 100 (0 no effect, 100 complete control), read-out: Plant response rating, Oat, Wild
Summary of the method: as §1

[11] = tested on: wild poinsettia; assay: Test E postemergence; format: in vivo, Euphorbia heterophylla; settings: Euphorbia heterophylla, post-emergence, read-out: Plant response rating, Poinsettia, Wild
Summary of the method: (§2)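 Response was scored visually on a 0-100 scale (100 = complete control) versus controls after 14 to 21 days in the greenhouse. Test chemicals, formulated with surfactant in a non-phytotoxic solvent mixture, had been applied preemergence to seeds in silt loam soil or postemergence to 1- to 4-leaf plants in potting medium.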

[12] = tested on: barnyardgrass; assay: Test E postemergence; format: in vivo, Echinochloa crus-galli; settings: Echinochloa crus-galli, post-emergence, read-out: Plant response rating, Barnyardgrass
Summary of the method: as §2

[13] = tested on: sandbur; assay: Test E postemergence; format: in vivo, Cenchrus echinatus; settings: Cenchrus echinatus, post-emergence, read-out: Plant response rating, Sandbur
Summary of the method: as §2

[14] = Postemergence, 31 g ai/ha, scale 0 to 100
[15] = Postemergence, 62 g ai/ha, scale 0 to 100
[16] = Postemergence, 125 g ai/ha, scale 0 to 100
[17] = Postemergence, 250 g ai/ha, scale 0 to 100
[18] = postemergence, 16 g ai/ha, scale 0 to 100, 0 no effect, 100 complete control

N#Cc1cccc(Oc2ncc(Br)cn2)c1-n1cc(C(F)(F)F)cn1 [Compound 59, 3-[(5-bromo-2-pyrimidinyl)oxy]-2-[4-(trifluoromethyl)-1H-pyrazol-1-yl]benzonitrile]
pest or weed control at 31 g/ha ([1]; 31 g ai/ha): 0% | pest or weed control at 62 g/ha ([1]; 62 g ai/ha): 0% | pest or weed control at 125 g/ha ([1]; 125 g ai/ha): 10% | pest or weed control at 250 g/ha ([1]; 250 g ai/ha): 40% | pest or weed control at 31 g/ha ([2]; 31 g ai/ha): 95% | pest or weed control at 62 g/ha ([2]; 62 g ai/ha): 100% | pest or weed control at 125 g/ha ([2]; 125 g ai/ha): 100% | pest or weed control at 250 g/ha ([2]; 250 g ai/ha): 100% | pest or weed control at 31 g/ha ([3]; 31 g ai/ha, scale 0 (no effect) to 100 (complete control), read-out: Plant response rating, Ryegrass, Italian): 0% | pest or weed control at 62 g/ha ([3]; 62 g ai/ha, scale 0-100, read-out: Plant response rating, Ryegrass, Italian): 5% | pest or weed control at 125 g/ha ([3]; 125 g ai/ha, scale 0-100, read-out: Plant response rating, Ryegrass, Italian): 60% | pest or weed control at 250 g/ha ([3]; 250 g ai/ha, scale 0-100, read-out: Plant response rating, Ryegrass, Italian): 70% | pest or weed control at 31 g/ha ([4]; 31 g ai/ha): 95% | pest or weed control at 62 g/ha ([4]; 62 g ai/ha): 100% | pest or weed control at 125 g/ha ([4]; 125 g ai/ha): 95% | pest or weed control at 250 g/ha ([4]; 250 g ai/ha): 100% | pest or weed control at 31 g/ha ([5]; 31 g ai/ha, scale 0 (no effect) to 100 (complete control), read-out: Plant response rating, Pigweed): 100% | pest or weed control at 62 g/ha ([5]; 62 g ai/ha, scale 0-100, read-out: Plant response rating, Pigweed): 100% | pest or weed control at 125 g/ha ([5]; 125 g ai/ha, scale 0-100, read-out: Plant response rating, Pigweed): 100% | pest or weed control at 250 g/ha ([5]; 250 g ai/ha, scale 0-100, read-out: Plant response rating, Pigweed): 100% | pest or weed control at 31 g/ha ([6]; 31 g ai/ha): 10% | pest or weed control at 62 g/ha ([6]; 62 g ai/ha): 15% | pest or weed control at 125 g/ha ([6]; 125 g ai/ha): 95% | pest or weed control at 250 g/ha ([6]; 250 g ai/ha): 85% | plant injury at 31 g/ha ([7]; 31 g ai/ha): 5% | plant injury at 62 g/ha ([7]; 62 g ai/ha): 5% | plant injury at 125 g/ha ([7]; 125 g ai/ha): 50% | plant injury at 250 g/ha ([7]; 250 g ai/ha): 75% | pest or weed control at 31 g/ha ([8]; 31 g ai/ha, scale 0 (no effect) to 100 (complete control), read-out: Plant response rating, Windgrass): 70% | pest or weed control at 62 g/ha ([8]; 62 g ai/ha, scale 0-100, read-out: Plant response rating, Windgrass): 100% | pest or weed control at 125 g/ha ([8]; 125 g ai/ha, scale 0-100, read-out: Plant response rating, Windgrass): 100% | pest or weed control at 250 g/ha ([8]; 250 g ai/ha, scale 0-100, read-out: Plant response rating, Windgrass): 100% | pest or weed control at 62 g/ha ([9]; 62 g ai/ha): 30% | pest or weed control at 31 g/ha ([9]; 31 g ai/ha): 25% | pest or weed control at 125 g/ha ([9]; 125 g ai/ha): 40% | pest or weed control at 250 g/ha ([9]; 250 g ai/ha): 70% | pest or weed control at 31 g/ha ([10]; 31 g ai/ha): 25% | pest or weed control at 62 g/ha ([10]; 62 g ai/ha): 30% | pest or weed control at 125 g/ha ([10]; 125 g ai/ha): 35% | pest or weed control at 250 g/ha ([10]; 250 g ai/ha): 50% | pest or weed control at 31 g/ha [11, 14]: 50% | pest or weed control at 62 g/ha [11, 15]: 60% | pest or weed control at 125 g/ha [11, 16]: 65% | pest or weed control at 250 g/ha [11, 17]: 80% | pest or weed control at 16 g/ha [11, 18]: 50% | pest or weed control at 31 g/ha [12, 14]: 0% | pest or weed control at 62 g/ha [12, 15]: 10% | pest or weed control at 125 g/ha [12, 16]: 15% | pest or weed control at 250 g/ha [12, 17]: 30% | pest or weed control at 16 g/ha [12, 18]: 0% | pest or weed control at 31 g/ha [13, 14]: 0% | pest or weed control at 62 g/ha [13, 15]: 0% | pest or weed control at 125 g/ha [13, 16]: 10% | pest or weed control at 250 g/ha [13, 17]: 20% | pest or weed control at 16 g/ha [13, 18]: 0%

From US9695155B2, “Herbicidal substituted pyrimidinyloxy benzene compounds” (E. I. DU PONT DE NEMOURS AND COMPANY, priority 2013, dated 2017)
